Key:
Format in all cases: binding
TYK2 = molecular target: T1, TYK2 (Homo sapiens, UniProt P29597); assay: Kinobeads assay with immunodetection, TYK2; conditions: for IC50: Kinobeads assay, mixed Molt4/Ramos lysate, read-out: Inhibition values (IC50) Tyk2
T1 construct: endogenous in cells; host or cells: Molt4 (ATCC CRL-1582) and Ramos (ATCC CRL-1596) cells; mixed lysate 1:2
Procedure, shortened: (§1)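 Lysates of Molt4 and Ramos cells, combined 1:2 and diluted to 10 mg/mL in Tris pH 7.4 buffer with 0.8% NP40, are incubated for 3 h in the cold with compound and the affinity matrix. Beads are washed, eluted in SDS buffer, and kinases are quantified by infrared immunodetection to give IC50s.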

JAK3 = molecular target: T2, JAK3 (Homo sapiens, UniProt P52333); assay: Kinobeads assay with immunodetection, JAK3; conditions: for IC50: Kinobeads assay, mixed Molt4/Ramos lysate, read-out: Inhibition values (IC50) JAK3
T2 construct: endogenous in cells; host or cells: Molt4 (ATCC CRL-1582) and Ramos (ATCC CRL-1596) cells; mixed lysate 1:2
T2 sequence (P52333 1-1124): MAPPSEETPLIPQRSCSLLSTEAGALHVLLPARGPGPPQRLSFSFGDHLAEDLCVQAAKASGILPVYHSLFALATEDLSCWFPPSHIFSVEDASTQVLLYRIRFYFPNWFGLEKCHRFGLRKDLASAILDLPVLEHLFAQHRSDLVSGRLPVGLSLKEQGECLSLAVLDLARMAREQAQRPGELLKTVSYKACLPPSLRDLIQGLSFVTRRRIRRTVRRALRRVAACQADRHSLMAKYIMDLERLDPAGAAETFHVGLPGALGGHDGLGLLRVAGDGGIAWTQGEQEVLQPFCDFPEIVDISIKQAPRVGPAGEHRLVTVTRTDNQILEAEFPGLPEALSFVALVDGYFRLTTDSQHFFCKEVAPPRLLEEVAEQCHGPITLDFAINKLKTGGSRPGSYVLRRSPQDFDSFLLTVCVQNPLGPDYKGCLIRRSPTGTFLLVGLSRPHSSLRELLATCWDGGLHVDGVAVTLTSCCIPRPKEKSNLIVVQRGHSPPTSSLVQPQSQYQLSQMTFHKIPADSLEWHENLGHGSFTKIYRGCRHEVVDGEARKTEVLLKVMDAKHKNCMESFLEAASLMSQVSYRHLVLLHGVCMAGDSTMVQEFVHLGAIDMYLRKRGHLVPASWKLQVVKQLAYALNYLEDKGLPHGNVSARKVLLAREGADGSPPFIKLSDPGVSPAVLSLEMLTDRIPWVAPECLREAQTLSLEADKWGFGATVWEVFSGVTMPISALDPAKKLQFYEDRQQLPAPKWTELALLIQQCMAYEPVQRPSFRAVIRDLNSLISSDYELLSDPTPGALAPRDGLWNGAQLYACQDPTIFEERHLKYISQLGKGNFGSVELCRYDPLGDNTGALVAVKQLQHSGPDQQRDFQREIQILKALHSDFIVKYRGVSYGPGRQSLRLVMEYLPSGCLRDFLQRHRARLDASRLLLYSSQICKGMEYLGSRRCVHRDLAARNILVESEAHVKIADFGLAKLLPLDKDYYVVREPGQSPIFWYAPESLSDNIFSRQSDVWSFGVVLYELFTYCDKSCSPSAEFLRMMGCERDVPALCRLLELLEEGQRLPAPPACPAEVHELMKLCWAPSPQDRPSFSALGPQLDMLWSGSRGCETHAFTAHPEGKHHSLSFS
Procedure, shortened: as §1

JAK2 = molecular target: T3, JAK2 (Homo sapiens, UniProt O60674); assay: Kinobeads assay with immunodetection, JAK2; conditions: mixed Molt4/Ramos lysate, read-out: Inhibition values (IC50) JAK2
T3 construct: endogenous in cells; host or cells: Molt4 (ATCC CRL-1582) and Ramos (ATCC CRL-1596) cells; mixed lysate 1:2
T3 sequence (O60674 whole entry): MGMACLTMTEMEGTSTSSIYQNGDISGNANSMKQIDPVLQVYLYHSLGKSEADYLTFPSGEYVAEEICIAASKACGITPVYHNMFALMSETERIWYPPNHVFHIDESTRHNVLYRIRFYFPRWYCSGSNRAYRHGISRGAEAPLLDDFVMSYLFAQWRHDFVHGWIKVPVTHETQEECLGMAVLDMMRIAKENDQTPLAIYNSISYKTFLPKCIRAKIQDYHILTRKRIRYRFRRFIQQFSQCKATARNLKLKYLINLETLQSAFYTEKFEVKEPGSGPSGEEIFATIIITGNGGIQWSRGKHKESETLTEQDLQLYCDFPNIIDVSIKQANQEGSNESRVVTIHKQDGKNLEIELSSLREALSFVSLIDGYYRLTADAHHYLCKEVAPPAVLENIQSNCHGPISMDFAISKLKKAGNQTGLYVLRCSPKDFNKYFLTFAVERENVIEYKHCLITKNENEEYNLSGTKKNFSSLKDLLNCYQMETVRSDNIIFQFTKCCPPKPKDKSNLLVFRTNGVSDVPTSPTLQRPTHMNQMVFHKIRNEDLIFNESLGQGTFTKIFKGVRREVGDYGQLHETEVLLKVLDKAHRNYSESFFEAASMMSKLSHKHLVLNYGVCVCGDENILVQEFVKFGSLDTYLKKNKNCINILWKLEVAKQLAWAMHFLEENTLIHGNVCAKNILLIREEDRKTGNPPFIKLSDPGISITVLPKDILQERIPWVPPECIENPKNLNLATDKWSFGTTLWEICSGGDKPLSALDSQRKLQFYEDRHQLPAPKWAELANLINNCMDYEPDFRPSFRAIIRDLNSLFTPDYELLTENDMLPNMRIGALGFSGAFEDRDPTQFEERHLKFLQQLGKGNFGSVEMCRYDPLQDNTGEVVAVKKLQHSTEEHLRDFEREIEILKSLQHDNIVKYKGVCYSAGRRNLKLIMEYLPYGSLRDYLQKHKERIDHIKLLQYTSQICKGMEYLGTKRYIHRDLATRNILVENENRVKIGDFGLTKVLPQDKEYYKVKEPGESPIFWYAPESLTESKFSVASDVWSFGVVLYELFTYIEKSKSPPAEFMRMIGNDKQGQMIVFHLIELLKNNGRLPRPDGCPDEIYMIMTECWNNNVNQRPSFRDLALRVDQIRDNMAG
Procedure, shortened: as §1

JAK1 = molecular target: T4, JAK1 (Homo sapiens, UniProt P23458); assay: Kinobeads assay with immunodetection, JAK1; conditions: for IC50: Kinobeads assay, mixed Molt4/Ramos lysate, read-out: Inhibition values (IC50) JAK1
T4 construct: endogenous in cells; host or cells: Molt4 (ATCC CRL-1582) and Ramos (ATCC CRL-1596) cells; mixed lysate 1:2
T4 sequence (P23458 whole entry): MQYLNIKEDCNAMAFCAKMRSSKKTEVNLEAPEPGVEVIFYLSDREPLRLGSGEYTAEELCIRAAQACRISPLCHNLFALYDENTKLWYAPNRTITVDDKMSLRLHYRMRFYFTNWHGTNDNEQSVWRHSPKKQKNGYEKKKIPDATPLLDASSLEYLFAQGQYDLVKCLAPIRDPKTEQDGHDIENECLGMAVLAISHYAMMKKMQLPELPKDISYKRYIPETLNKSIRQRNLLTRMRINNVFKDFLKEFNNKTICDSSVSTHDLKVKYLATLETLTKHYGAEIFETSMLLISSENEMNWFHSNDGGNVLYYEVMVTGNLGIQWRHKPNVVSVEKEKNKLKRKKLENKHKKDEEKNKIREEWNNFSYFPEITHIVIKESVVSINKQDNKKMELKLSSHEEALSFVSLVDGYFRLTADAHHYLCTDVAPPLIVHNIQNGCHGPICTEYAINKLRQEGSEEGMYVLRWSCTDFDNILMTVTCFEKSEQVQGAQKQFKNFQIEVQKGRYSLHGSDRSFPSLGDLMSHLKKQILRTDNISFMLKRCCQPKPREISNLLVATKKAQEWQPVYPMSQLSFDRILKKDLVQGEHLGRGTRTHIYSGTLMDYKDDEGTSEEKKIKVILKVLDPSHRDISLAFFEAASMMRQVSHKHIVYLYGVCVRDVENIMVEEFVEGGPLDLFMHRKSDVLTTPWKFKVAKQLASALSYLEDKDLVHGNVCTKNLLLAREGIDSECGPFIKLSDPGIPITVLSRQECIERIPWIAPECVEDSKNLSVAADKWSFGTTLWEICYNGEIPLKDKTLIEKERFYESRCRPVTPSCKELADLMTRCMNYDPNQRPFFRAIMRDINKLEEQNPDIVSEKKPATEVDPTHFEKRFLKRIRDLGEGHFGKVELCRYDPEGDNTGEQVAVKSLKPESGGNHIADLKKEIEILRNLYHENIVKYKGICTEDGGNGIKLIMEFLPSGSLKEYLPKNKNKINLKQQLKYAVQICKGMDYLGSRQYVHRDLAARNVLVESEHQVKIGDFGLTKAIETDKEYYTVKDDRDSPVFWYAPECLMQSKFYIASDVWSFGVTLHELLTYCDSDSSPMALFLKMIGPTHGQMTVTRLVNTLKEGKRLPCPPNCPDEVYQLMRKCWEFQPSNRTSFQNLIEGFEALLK
Procedure, shortened: as §1

T1 sequence (P29597 whole entry): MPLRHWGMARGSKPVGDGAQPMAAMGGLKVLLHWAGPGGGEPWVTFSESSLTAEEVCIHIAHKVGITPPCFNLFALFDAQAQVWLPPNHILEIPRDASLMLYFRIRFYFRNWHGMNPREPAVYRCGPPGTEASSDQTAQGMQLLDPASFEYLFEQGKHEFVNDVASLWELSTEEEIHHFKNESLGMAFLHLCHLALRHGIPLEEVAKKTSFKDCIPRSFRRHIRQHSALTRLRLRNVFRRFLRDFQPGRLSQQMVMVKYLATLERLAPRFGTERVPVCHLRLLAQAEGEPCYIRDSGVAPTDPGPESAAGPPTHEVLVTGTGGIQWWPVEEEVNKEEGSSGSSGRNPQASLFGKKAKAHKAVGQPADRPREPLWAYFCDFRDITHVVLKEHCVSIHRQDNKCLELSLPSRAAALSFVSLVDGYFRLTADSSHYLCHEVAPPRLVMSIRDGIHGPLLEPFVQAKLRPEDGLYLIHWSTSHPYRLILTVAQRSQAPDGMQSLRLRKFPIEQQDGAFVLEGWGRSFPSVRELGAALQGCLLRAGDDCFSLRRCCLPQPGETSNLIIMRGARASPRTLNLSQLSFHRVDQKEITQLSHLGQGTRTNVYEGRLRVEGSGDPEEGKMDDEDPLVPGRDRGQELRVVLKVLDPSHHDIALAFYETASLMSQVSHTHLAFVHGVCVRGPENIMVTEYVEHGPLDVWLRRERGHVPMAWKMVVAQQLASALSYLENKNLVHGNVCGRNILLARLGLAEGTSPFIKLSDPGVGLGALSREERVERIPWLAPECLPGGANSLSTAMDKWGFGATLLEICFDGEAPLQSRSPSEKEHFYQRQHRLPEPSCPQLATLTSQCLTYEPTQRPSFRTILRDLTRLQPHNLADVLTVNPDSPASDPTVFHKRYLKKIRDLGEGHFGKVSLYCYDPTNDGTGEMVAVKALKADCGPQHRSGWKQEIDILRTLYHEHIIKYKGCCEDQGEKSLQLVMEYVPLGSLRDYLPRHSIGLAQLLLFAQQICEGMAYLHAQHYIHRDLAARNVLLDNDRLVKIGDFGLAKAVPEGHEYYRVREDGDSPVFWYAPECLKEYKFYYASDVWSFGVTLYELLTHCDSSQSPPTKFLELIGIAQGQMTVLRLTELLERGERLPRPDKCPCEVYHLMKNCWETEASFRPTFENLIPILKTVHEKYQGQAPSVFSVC

Row | SMILES | IC50 (TYK2) | Selectivity ratio over JAK2, JAK3 (JAK3) | IC50 (JAK3) | IC50 (JAK2) | IC50 (JAK1) | Selectivity ratio over JAK2, JAK1 (JAK1) | Selectivity ratio over JAK2, Tyk2 (TYK2)
1 | Cn1cc(Nc2ncc(Cl)c(NC[C@H]3CCCN3CCCC#N)n2)cn1 [Example 97, (R)-4-(2-(((5-chloro-2-((1-methyl-1H-pyrazol-4-yl)amino)pyrimidin-4-yl)amino)methyl)pyrrolidin-1-yl)butanenitrile] | < 100 nM | JAK3 = 160 | < 100 nM | 1000 to 10000 nM | < 100 nM | – | –
2 | Cn1cc(Nc2ncc(Cl)c(NC[C@H]3CCCN3S(=O)(=O)C3CC3)n2)cn1 [Example 98, (R)-5-chloro-N^4-((1-(cyclopropylsulfonyl)pyrrolidin-2-yl)methyl)-N^2-(1-methyl-1H-pyrazol-4-yl)pyrimidine-2,4-diamine] | < 100 nM | JAK3 = 53 | < 100 nM | 100 to 1000 nM | < 100 nM | – | –
3 | Cn1cc(Nc2ncc(Cl)c(NC[C@H]3CCCN3CC(=O)NCC#N)n2)cn1 [Example 99, (R)-2-(2-(((5-chloro-2-((1-methyl-1H-pyrazol-4-yl)amino)pyrimidin-4-yl)amino)methyl)pyrrolidin-1-yl)-N-(cyanomethyl)acetamide] | 100 to 1000 nM | JAK3 = 155 | < 100 nM | 1000 to 10000 nM | < 100 nM | – | –
4 | Cc1cnc(Nc2cnn(C)c2)nc1NC[C@@H]1C[C@H](F)CN1CCS(C)(=O)=O [Example 100, N^4-(((2S,4S)-4-fluoro-1-(2-(methylsulfonyl)ethyl)pyrrolidin-2-yl)methyl)-5-methyl-N^2-(1-methyl-1H-pyrazol-4-yl)pyrimidine-2,4-diamine] | < 100 nM | – | 100 to 1000 nM | 100 to 1000 nM | < 100 nM | JAK1 = 26 | –
5 | Cc1cnc(Nc2cnn(C)c2)nc1NC[C@@H]1C[C@H](F)CN1CCC#N [Example 101, 3-((2S,4S)-4-fluoro-2-(((5-methyl-2-((1-methyl-1H-pyrazol-4-yl)amino)pyrimidin-4-yl)amino)methyl)pyrrolidin-1-yl)propanenitrile] | < 100 nM | – | 100 to 1000 nM | 100 to 1000 nM | < 100 nM | JAK1 = 17 | –
6 | Cc1cnc(Nc2cnn(C)c2)nc1NC[C@@H]1C[C@H](F)CN1CC#N [Example 102, 2-((2S,4S)-4-fluoro-2-(((5-methyl-2-((1-methyl-1H-pyrazol-4-yl)amino)pyrimidin-4-yl)amino)methyl)pyrrolidin-1-yl)acetonitrile] | 100 to 1000 nM | – | 100 to 1000 nM | 1000 to 10000 nM | < 100 nM | JAK1 = 16 | –
7 | Cc1cnc(Nc2cnn(C)c2)nc1NC[C@@H]1C[C@H](F)CN1C(=O)CC#N [Example 103, 3-((2S,4S)-4-fluoro-2-(((5-methyl-2-((1-methyl-1H-pyrazol-4-yl)amino)pyrimidin-4-yl)amino)methyl)pyrrolidin-1-yl)-3-oxopropanenitrile] | 100 to 1000 nM | – | 100 to 1000 nM | > 10000 nM | < 100 nM | JAK1 = 150 | –
8 | Cc1cnc(Nc2cnn(C)c2)nc1NC[C@@H]1C[C@H](F)CN1C(=O)CCC#N [Example 104, 4-((2S,4S)-4-fluoro-2-(((5-methyl-2-((1-methyl-1H-pyrazol-4-yl)amino)pyrimidin-4-yl)amino)methyl)pyrrolidin-1-yl)-4-oxobutanenitrile] | < 100 nM | – | 100 to 1000 nM | 1000 to 10000 nM | < 100 nM | JAK1 = 96 | –

More lines, now with the values ahead:

Row | IC50 (TYK2) | Selectivity ratio over JAK2, JAK3 (JAK3) | IC50 (JAK3) | IC50 (JAK2) | IC50 (JAK1) | Selectivity ratio over JAK2, JAK1 (JAK1) | Selectivity ratio over JAK2, Tyk2 (TYK2) | SMILES
9 | < 100 nM | – | 100 to 1000 nM | 1000 to 10000 nM | < 100 nM | JAK1 = 33 | – | Cc1cnc(Nc2cnn(C)c2)nc1NC[C@@H]1CCCN1CCS(C)(=O)=O [Example 105, (S)-5-methyl-N^2-(1-methyl-1H-pyrazol-4-yl)-N^4-((1-(2-(methylsulfonyl)ethyl)pyrrolidin-2-yl)methyl)pyrimidine-2,4-diamine]
10 | < 100 nM | – | 100 to 1000 nM | 1000 to 10000 nM | < 100 nM | – | Tyk2 = 38 | Cc1cnc(Nc2cnn(C)c2)nc1NC[C@@H]1CCCN1CCC#N [Example 106, (S)-3-(2-(((5-methyl-2-((1-methyl-1H-pyrazol-4-yl)amino)pyrimidin-4-yl)amino)methyl)pyrrolidin-1-yl)propanenitrile]
11 | < 100 nM | – | < 100 nM | 100 to 1000 nM | < 100 nM | – | Tyk2 = 67 | Cc1cnc(Nc2cnn(C)c2)nc1NC[C@H]1CCCN1CCS(C)(=O)=O [Example 107, (R)-5-methyl-N^2-(1-methyl-1H-pyrazol-4-yl)-N^4-((1-(2-(methylsulfonyl)ethyl)pyrrolidin-2-yl)methyl)pyrimidine-2,4-diamine]
12 | < 100 nM | – | 100 to 1000 nM | 1000 to 10000 nM | 100 to 1000 nM | – | Tyk2 = 80 | Cc1cnc(Nc2cnn(C)c2)nc1NC[C@H]1CCCN1CCC#N [Example 108, (R)-3-(2-(((5-methyl-2-((1-methyl-1H-pyrazol-4-yl)amino)pyrimidin-4-yl)amino)methyl)pyrrolidin-1-yl)propanenitrile]
13 | < 100 nM | – | 100 to 1000 nM | 100 to 1000 nM | < 100 nM | – | Tyk2 = 69 | Cc1cnc(Nc2cnn(C)c2)nc1NC[C@H]1CCCN1C(=O)CC#N [Example 109, (R)-3-(2-(((5-methyl-2-((1-methyl-1H-pyrazol-4-yl)amino)pyrimidin-4-yl)amino)methyl)pyrrolidin-1-yl)-3-oxopropanenitrile]
14 | 100 to 1000 nM | – | < 100 nM | 1000 to 10000 nM | < 100 nM | JAK1 = 88 | – | Cn1cc(Nc2ncc(Cl)c(NC[C@@H]3C[C@H](F)CN3C(=O)CCC#N)n2)cn1 [Example 110, 4-((2S,4S)-2-(((5-chloro-2-((1-methyl-1H-pyrazol-4-yl)amino)pyrimidin-4-yl)amino)methyl)-4-fluoropyrrolidin-1-yl)-4-oxobutanenitrile]
15 | < 100 nM | – | 1000 to 10000 nM | 1000 to 10000 nM | < 100 nM | JAK1 = 55 | – | Cc1cnc(Nc2cnn(C)c2)nc1NC[C@H]1CCN(C(=O)CCC#N)C1 [Example 111, (R)-4-(3-(((5-methyl-2-((1-methyl-1H-pyrazol-4-yl)amino)pyrimidin-4-yl)amino)methyl)pyrrolidin-1-yl)-4-oxobutanenitrile]
16 | < 100 nM | – | 100 to 1000 nM | 1000 to 10000 nM | 100 to 1000 nM | – | Tyk2 = 53 | Cn1cc(Nc2ncc(F)c(NC[C@H]3CCCN3CCC#N)n2)cn1 [Example 112, (R)-3-(2-(((5-fluoro-2-((1-methyl-1H-pyrazol-4-yl)amino)pyrimidin-4-yl)amino)methyl)pyrrolidin-1-yl)propanenitrile]
17 | < 100 nM | – | 100 to 1000 nM | 1000 to 10000 nM | < 100 nM | – | Tyk2 = 170 | Cn1cc(Nc2ncc(F)c(NC[C@H]3CCCN3C(=O)CC#N)n2)cn1 [Example 113, (R)-3-(2-(((5-fluoro-2-((1-methyl-1H-pyrazol-4-yl)amino)pyrimidin-4-yl)amino)methyl)pyrrolidin-1-yl)-3-oxopropanenitrile]
18 | < 100 nM | – | 100 to 1000 nM | 1000 to 10000 nM | < 100 nM | – | Tyk2 = 103 | Cn1cc(Nc2ncc(F)c(NC[C@H]3CCCN3C(=O)CCC#N)n2)cn1 [Example 114, (R)-4-(2-(((5-fluoro-2-((1-methyl-1H-pyrazol-4-yl)amino)pyrimidin-4-yl)amino)methyl)pyrrolidin-1-yl)-4-oxobutanenitrile]
